# In publication PMC12977544, “Phenotypic high-throughput screening identifies modulators of gut microbial choline metabolism” (mBio, 2026):
# Where two headings read alike, the source gives them in different places.
# Key:
# E. coli MS 200-1 [1] = test: TMA inhibition in bacterial whole cells (LC–MS/MS of d9-TMA from d9-choline); format: cell-based, Escherichia coli MS 200-1; conditions: 1 mM d9-choline in PBS, 75 min, 37°C, anaerobic
# Method: (§1) For TMA inhibition assays, E. coli and P. mirabilis were grown in NCE medium supplemented with 20 mM choline chloride, A. hydrogenalis was grown in MEGA medium supplemented with 3 mM choline chloride, and C. sporogenes was grown in BHI medium supplemented with 20 mM of choline chloride to induce expression of the cut gene cluster. For MIC assays, all bacteria strains were grown in MEGA medium.
# (§2) Compounds were stored as 10 mM DMSO stocks at –20°C and diluted in DMSO to prepare varying concentrations of inhibitors for testing. Bacteria were grown anaerobically overnight in media supplemented with choline as described above. Cells were pelleted and resuspended in PBS, and d9-choline chloride was added to a final concentration of 1 mM. The final OD600 of the PBS cell resuspensions is as follows: 0.4 (E. coli), 0.15–0.2 (P. mirabilis), 0.2 (C. sporogenes), and 0.4 (A. hydrogenalis). The resuspended cells were added to 96-well plates containing inhibitors (final concentration of 1% DMSO, with final inhibitor concentrations ranging between 0 and 325 µM). The plates were sealed and incubated for 75 min (or 90 min for P. mirabilis) at 37°C. Following incubation, the plates were removed from the anaerobic chamber and analyzed immediately or kept at –20°C until LC–MS/MS analysis. Each inhibitor concentration was tested in triplicate. EC50 values were calculated with GraphPad Prism by fitting the log(inhibitor) vs response—Variable slope (four-parameter) model for non-linear regression.
# (§3) Samples were kept frozen until analysis and kept cold on ice during handling due to the volatility of TMA. Bacterial cell resuspensions in PBS were diluted 100-fold in LCMS-grade acetonitrile with 0.1% formic acid to lyse cells, precipitate proteins, and extract metabolites. Samples were centrifuged at 4,000 rpm for 10 min at 4°C to pellet proteins. The supernatants were then further diluted 20-fold in LCMS-grade acetonitrile with 0.1% formic acid, and the resulting solution was analyzed by LC–MS/MS.
# (§4) LC–MS/MS analysis was performed on an Agilent 1290/6470 Triple Quadrupole LC–MS instrument (Agilent Technologies) using electrospray ionization. The mass spectrometer was operated in multiple reaction monitoring (MRM) mode with positive ionization monitoring. The precursor–product ion pairs used in MRM mode were as follows: m/z 69.1m/z → 49.1 (d9-TMA) and m/z 113.2 m/z → 69.1 (d9-choline). The capillary voltage was set to 4.0 kV, and the fragmentor voltage was set to 30 V (d9-TMA) and 115 V (d9-choline). The collision energy for the precursor–product ion pairs was set to 29 V (d9-TMA) and 21 V (d9-choline). MS^1 resolution was set to wide and MS^2 resolution to unit. The drying gas temperature was maintained at 250°C, with a flow rate of 11 L/min and a nebulizer pressure of 45 psi. The time filter width used was 0.07 min. The injection volume of all samples was 1 μL. Samples were injected onto InfinityLab Poroshell 120 (Agilent) HILIC columns (2.7 μm, 100 mm × 2.1 mm, 100 Å) preceded by InfinityLab Poroshell 120 HILIC guard columns (2.1 mm, 1.9µm UHPLC guard). The LC conditions on the binary pump were as follows: a gradient of 5–35% A increasing over 1.95 min (1.2 mL/min), a gradient of 35–5% A decreasing over 0.05 min (1.6 mL/min), and held at 5% A for 0.5 min (2 mL/min). […] Solvent A was 10 mM ammonium formate with 0.1% formic acid, and solvent B was acetonitrile with 0.1% formic acid. Data analysis was performed with Mass Hunter Workstation Data Acquisition and Qualitative Analysis software (Agilent Technologies).
# [2] = test system: Anaerococcus hydrogenalis DSM 7454; test: as above; format: cell-based; conditions: 1 mM d9-choline in PBS, 75 min, 37°C, anaerobic
# Method: as §1, §2, §3, §4
# [3] = test system: Clostridium sporogenes ATCC 15579; test: as above; format: cell-based; conditions: 1 mM d9-choline in PBS, 75 min, 37°C, anaerobic
# Method: as §1, §2, §3, §4
# [4] = test system: Proteus mirabilis ATCC 29906; test: as above; format: cell-based; conditions: 1 mM d9-choline in PBS, 90 min, 37°C, anaerobic; for EC50: read-out: EC50 in whole cells, P. mirabilis (TMA inhibition)
# Method: as §1, §2, §3, §4
# [5] = test system: choline-metabolizing gut bacteria (E. coli, P. mirabilis, C. sporogenes, A. hydrogenalis); test: TMA inhibition across the panel of four choline-metabolizing gut bacteria; format: cell-based; conditions: compared with compound 6
# Description: We then used secondary assays to prioritize scaffolds that had broad-spectrum TMA inhibitory activity against additional choline-metabolizing gut bacteria. For this, we used Clostridium sporogenes ATCC 15579, a human gut isolate that is able to efficiently ferment choline in addition to other carbon sources, as well as Anaerococcus hydrogenalis DSM 7454 and Proteus mirabilis ATCC 29906, human gut isolates previously identified to metabolize choline in vitro ([61]). In particular, E. coli MS 200-1 and C. sporogenes ATCC 15579 have been used in gnotobiotic studies to investigate the effects of bacterial choline metabolism on the host and microbiome ([46], [61], [62]). These strains are representative of taxa frequently detected in humans ([63]) and, together with E. coli, are representative of the major phyla and genera in which TMA producers have been detected across human gut isolates ([48]). Importantly, this group of strains included both gram-positive and gram-negative bacteria. Gram-negative bacteria have an additional outer membrane layer and associated efflux pumps ([29]), which typically decreases small molecule permeability compared to gram-positive bacteria. It also included bacteria with cut gene cluster architectures that differ in the number and types of microcompartment proteins encoded and in the size of the CutC enzyme ([48]). We hypothesized that testing the inhibitors against multiple choline-utilizing gut bacteria would increase the likelihood of identifying compounds with broad-spectrum activity.
# as §2
# [6] = target: T1, purified CutC (choline trimethylamine-lyase) (Oleidesulfovibrio alaskensis, UniProt Q30W70); test: In vitro CutC activity assay coupled to YADH/NADH (absorbance 340 nm); format: biochemical, Desulfovibrio desulfuricans G20; conditions: 5 nM CutC, 200 µM choline, 20°C, anaerobic
# T1 construct: made in house
# T1 sequence (Q30W70 53-846): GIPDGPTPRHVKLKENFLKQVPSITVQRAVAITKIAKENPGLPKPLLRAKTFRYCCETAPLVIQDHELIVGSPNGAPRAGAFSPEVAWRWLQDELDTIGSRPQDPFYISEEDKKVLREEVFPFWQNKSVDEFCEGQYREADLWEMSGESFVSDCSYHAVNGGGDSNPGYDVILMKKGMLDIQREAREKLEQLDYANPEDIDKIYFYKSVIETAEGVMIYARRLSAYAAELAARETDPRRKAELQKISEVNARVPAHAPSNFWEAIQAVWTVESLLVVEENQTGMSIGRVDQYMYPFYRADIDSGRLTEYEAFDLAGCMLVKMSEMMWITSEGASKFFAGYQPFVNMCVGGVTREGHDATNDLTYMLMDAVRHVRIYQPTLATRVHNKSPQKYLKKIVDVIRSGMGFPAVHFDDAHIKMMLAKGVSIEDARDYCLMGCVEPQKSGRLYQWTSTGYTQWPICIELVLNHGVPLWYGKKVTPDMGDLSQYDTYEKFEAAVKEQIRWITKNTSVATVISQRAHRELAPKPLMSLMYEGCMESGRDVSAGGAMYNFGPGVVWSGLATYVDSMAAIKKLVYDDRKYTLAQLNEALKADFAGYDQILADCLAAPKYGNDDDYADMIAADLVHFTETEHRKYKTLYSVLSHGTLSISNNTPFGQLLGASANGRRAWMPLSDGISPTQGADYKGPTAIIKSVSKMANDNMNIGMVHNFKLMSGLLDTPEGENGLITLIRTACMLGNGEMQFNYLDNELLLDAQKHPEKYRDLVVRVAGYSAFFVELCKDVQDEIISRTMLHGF
# Method: To investigate if our compounds were inhibiting CutC directly, we tested their activity toward the purified enzyme. The activity of CutC was determined using a coupled enzyme assay, where the acetaldehyde product from the cleavage of choline to TMA is reduced to ethanol by yeast alcohol dehydrogenase (YADH) using nicotinamide adenine dinucleotide (NADH) as a cofactor. The consumption of NADH results in a change in absorption at 340 nm, and this rate of change of absorption was used to calculate the initial rates of reaction of CutC in the presence of varying concentrations of inhibitors ([14], [65]).
# CutC and CutD enzymes from Desulfovibrio desulfuricans G20 were purified, CutC was activated by incubation with CutD, and the amount of glycyl radical installation was quantified as previously described ([15]). The IC50 of compounds was determined in an in vitro CutC activity assay, where CutC activity is coupled to the NADH-dependent enzymatic reduction of acetaldehyde by YADH ([15]). Briefly, assays were conducted in an anaerobic chamber (MBraun) under N2 atmosphere at 20°C. In 50 mM potassium phosphate buffer (pH 8.0, 50 mM KCl), 40 µM of CutD and 150 µM of sodium dithionite were incubated for 20 min before the addition of 200 µM of SAM and 20 µM of CutC monomer. The mixture was incubated for 1 h to activate the glycyl radical enzyme, after which the activated CutC mixture was diluted […] in 50 mM potassium phosphate buffer (pH 8.0, 50 mM KCl). A master mix containing 200 µM NADH, 0.4 µM YADH (Sigma), and the diluted CutC mixture (5 nM final concentration in assay) was prepared and aliquoted into 96-well plates (180 µL per well). Ten microliters of inhibitor or DMSO vehicle was added, followed by 10 µL of aqueous choline chloride solution (final concentration 200 µM). Absorbance was measured at 340 nm immediately after addition of all assay components, with measurements taken every 20 s for 10 min. Initial rates were calculated from absorbance measurements and fitted to Michaelis–Menten equation using nonlinear regression in GraphPad Prism 10 (v. 10.4.0). Background activity was subtracted using no substrate controls, and initial rates for each inhibitor concentration were normalized to no inhibitor controls. IC50 values were obtained by plotting normalized activity values against the logarithm of inhibitor concentration and fitting to a nonlinear regression model in GraphPad Prism 10 (v. 10.4.0).
# E. coli MS 200-1 [7] = test: MIC in MEGA medium; format: cell-based, Escherichia coli MS 200-1; conditions: anaerobic, 37°C, 24 h, up to 200 µM
# Method: as §1
# [8] = test system: Anaerococcus hydrogenalis DSM 7454; test: MIC in MEGA medium; format: cell-based; conditions: anaerobic, 37°C, 24 h, up to 200 µM
# Method: as §1
# [9] = test system: Bacteroides caccae ATCC 43185; test: MIC in MEGA medium; format: cell-based; conditions: anaerobic, 37°C, 24 h, up to 200 µM, read-out: MIC in MEGA medium, B. caccae
# Method: as §1
# [10] = test system: Bacteroides ovatus ATCC 8483; test: MIC in MEGA medium; format: cell-based; conditions: anaerobic, 37°C, 24 h, up to 200 µM, read-out: MIC in MEGA medium, B. ovatus
# Method: as §1
# [11] = test system: Bacteroides thetaiotaomicron VPI-5482; test: MIC in MEGA medium; format: cell-based; conditions: anaerobic, 37°C, 24 h, up to 200 µM, read-out: MIC in MEGA medium, B. thetaiotaomicron
# Method: as §1
# [12] = test system: Clostridium sporogenes ATCC 15579; test: MIC in MEGA medium; format: cell-based; conditions: anaerobic, 37°C, 24 h, up to 200 µM
# Method: as §1
# [13] = test system: Collinsella aerofaciens ATCC 25986; test: MIC in MEGA medium; format: cell-based; conditions: anaerobic, 37°C, 24 h, up to 200 µM
# Method: as §1
# [14] = test system: Eubacterium rectale ATCC 33656; test: MIC in MEGA medium; format: cell-based; conditions: anaerobic, 37°C, 24 h, up to 200 µM; read-out: MIC in MEGA medium, E. rectale
# Method: as §1
# [15] = test system: Proteus mirabilis ATCC 29906; test: MIC in MEGA medium; format: cell-based; conditions: anaerobic, 37°C, 24 h, up to 200 µM, read-out: MIC in MEGA medium, P. mirabilis
# Method: as §1
# [16] = test system: panel of commensal bacterial strains; test: MIC against panel of nine gut commensal bacteria; conditions: of 9 bacterial strains tested
structure (smiles),measurement,setting,value
Cc1ccc(-c2cc(C(=O)NCCCN3CCC(C)CC3)c[nH]2)cc1C [Compound 7],EC50,E. coli MS 200-1 [1],16 µM
same,EC50,[2],66 µM
same,EC50,[3],215 µM
same,EC50,[4],80 µM
same,Fold reduction of potency across all four choline-metabolizing bacteria,[5],about 2 fold
Cc1ccc(-c2cc(C(=O)N(C)CCCN3CCC(C)CC3)c(C)[nH]2)cc1C [Compound 27],EC50,E. coli MS 200-1 [1],> 125 µM
same,EC50,[2],44 µM
same,EC50,[3],12 µM
same,EC50,[4],> 312 µM
same,IC50,[6],18 µM
Cc1ccc(-c2cc(C(=O)OCCCN3CCC(C)CC3)c(C)[nH]2)cc1C [Compound 28],EC50,E. coli MS 200-1 [1],15 µM
same,EC50,[2],11 µM
same,EC50,[3],18 µM
same,EC50,[4],> 312 µM
same,Purified CutC IC50,[6],No inhibition
Cc1ccc(-c2cc(C(=O)NCCCN3CCC(C)CC3)c(C)n2Cc2ccccc2)cc1C [Compound 19],EC50,E. coli MS 200-1 [1],28 µM
same,EC50,[3],4 µM
same,MIC,E. coli MS 200-1 [7],> 200 µM
same,MIC,[8],25 µM
same,MIC,[9],> 200 µM
same,MIC,[10],25 µM
same,MIC,[11],50 µM
same,MIC,[12],> 200 µM
same,MIC,[13],6.25 µM
same,MIC,[14],25 µM
same,MIC,[15],> 200 µM
same,Bacterial strains with growth inhibited (MIC < 200 µM),[16],five out of 9
Cc1cccc(-c2cc(C(=O)NCCCN3CCC(C)CC3)c(C)[nH]2)c1 [Compound 23],EC50,E. coli MS 200-1 [1],5 µM
same,EC50,[2],35 µM
same,EC50,[3],95 µM
same,EC50,[4],46 µM
same,IC50,[6],64 µM
same,MIC,E. coli MS 200-1 [7],> 200 µM
same,MIC,[8],> 200 µM
same,MIC,[9],> 200 µM
same,MIC,[10],> 200 µM
same,MIC,[11],> 200 µM
same,MIC,[12],> 200 µM
same,MIC,[13],200 µM
same,MIC,[14],> 200 µM
same,MIC,[15],> 200 µM
Cc1cc(-c2cc(C(=O)NCCCN3CCC(C)CC3)c(C)[nH]2)ccn1 [Compound 26],EC50,E. coli MS 200-1 [1],> 125 µM
same,"EC50 in whole cells, A. hydrogenalis (TMA inhibition)",[2],No inhibition at 312
same,"EC50 in whole cells, C. sporogenes (TMA inhibition)",[3],No inhibition at 312
same,EC50,[4],> 312 µM
same,IC50,[6],45 µM
Cc1ccc(-c2cc(C(=O)NCCCCN3CCCCCC3)c(C)[nH]2)cc1C [Compound 44],MIC,"E. coli MS 200-1 [7]; Escherichia coli, MS2001",> 200 µM
same,MIC,"[8]; Anaerococcus hydrogenalis, DSM7454",> 200 µM
same,MIC,"[9]; Bacteroides caccae, ATCC43185",> 200 µM
same,MIC,"[10]; Bacteroides ovatus, ATCC8483",> 200 µM
same,MIC,"[11]; Bacteroides thetaiotaomicron, VPI5482",> 200 µM
same,MIC,"[12]; Clostridium sporogenes, ATCC15579",> 200 µM
same,MIC,"[13]; Collinsella aerofaciens, ATCC25986",> 200 µM
same,MIC,"[15]; Proteus mirabilis, ATCC29906",> 200 µM
Cc1ccc(-c2cc(C(=O)NCCCN3CCOCC3)c(C)[nH]2)cc1C [Compound 37],Purified CutC IC50,[6],No inhibition
Cc1[nH]ccc1C(=O)NCCCN1CCC(C)CC1 [Compound 20],EC50,E. coli MS 200-1 [1],> 125 µM
same,"EC50 in whole cells, A. hydrogenalis (TMA inhibition)",[2],No inhibition at 312
same,"EC50 in whole cells, C. sporogenes (TMA inhibition)",[3],No inhibition at 312
same,"EC50 in whole cells, P. mirabilis (TMA inhibition)",[4],No inhibition at 312
same,IC50,[6],> 125 µM
